From ChEMBL document CHEMBL3301562, “MMV Box screening against Plasmodium falciparum protein kinases and aminoacyl tRNA synthetases”

Assays:
Type in all cases: functional
[1] = biological target: T1, Cdk-related protein kinase 6 (Plasmodium falciparum, UniProt O77239); test: Final concentrations were 1.5 uM ATP, 5 mM MnCl2, and 15 ug/ml PK6 in a buffer of 100 mM Tris-HCl (pH 7.5). 50 ug/mL MBP was provided as the substrate; 10 uM staurosporine was used as a control inhibitor. Incubation time was 3 hours and 40 minutes.The catalytic activity of each kinase was considered proportional to ATP consumed, as determined from measurements of residual [ATP] with the luciferase-based reagent Kinase-Glo (Promega) following incubation. Luminescence (proportional to residual [ATP]) was measured on the plate readers FLx800 (BioTek Instruments, Winooski, VT, USA) and MicroBeta2.
T1 sequence (O77239 whole entry): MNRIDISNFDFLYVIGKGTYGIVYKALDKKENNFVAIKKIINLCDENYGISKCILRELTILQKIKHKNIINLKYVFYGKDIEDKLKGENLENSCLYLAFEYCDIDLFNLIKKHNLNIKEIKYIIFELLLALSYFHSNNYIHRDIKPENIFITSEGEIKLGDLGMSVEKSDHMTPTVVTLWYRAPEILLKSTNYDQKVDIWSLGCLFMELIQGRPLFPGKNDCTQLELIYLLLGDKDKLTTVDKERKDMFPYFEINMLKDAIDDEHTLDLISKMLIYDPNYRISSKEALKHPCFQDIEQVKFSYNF

[2] = biological target: T2, Putative uncharacterized protein pk7 (Plasmodium falciparum, UniProt O96214); test: Final concentrations were 1 uM ATP, 2 mM DTT, 20 mM MgCl2, 2 mM MnCl2, 0.01% BSA, and 6 ug/ml PK7, in a buffer of 20 mM Tris-HCl (pH 7.5). The enzyme itself was the only substrate present (since autophosphorylation occurs); 100 uM 1NA-PP1 was used as a control inhibitor. Incubation time was 3 hours.
T2 sequence (O96214 whole entry): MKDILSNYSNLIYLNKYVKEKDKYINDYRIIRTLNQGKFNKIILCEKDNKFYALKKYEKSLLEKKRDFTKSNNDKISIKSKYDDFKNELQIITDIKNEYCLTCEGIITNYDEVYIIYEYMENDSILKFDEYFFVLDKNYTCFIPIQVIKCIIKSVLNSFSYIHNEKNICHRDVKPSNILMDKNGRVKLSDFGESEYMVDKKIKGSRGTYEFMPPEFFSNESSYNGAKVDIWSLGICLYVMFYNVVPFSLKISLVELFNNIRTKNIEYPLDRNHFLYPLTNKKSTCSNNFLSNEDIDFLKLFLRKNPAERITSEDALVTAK

[3] = biological target: T3, Mitogen-activated protein kinase (Plasmodium falciparum, UniProt Q25917); test: Final concentrations were 1 uM ATP, 0.5 mM DTT, 1 mM MgCl2, 0.5 mg/mL BSA, and 10 ug/ml MAP2 in a buffer of 50 mM HEPES (pH 7.0). 0.5 mg/mL histone III-S served as the substrate (13); 100 uM AMP-PNP, an ATP analog, was used as a control inhibitor. Incubation time was 4 hours.
T3 sequence (Q25917 whole entry): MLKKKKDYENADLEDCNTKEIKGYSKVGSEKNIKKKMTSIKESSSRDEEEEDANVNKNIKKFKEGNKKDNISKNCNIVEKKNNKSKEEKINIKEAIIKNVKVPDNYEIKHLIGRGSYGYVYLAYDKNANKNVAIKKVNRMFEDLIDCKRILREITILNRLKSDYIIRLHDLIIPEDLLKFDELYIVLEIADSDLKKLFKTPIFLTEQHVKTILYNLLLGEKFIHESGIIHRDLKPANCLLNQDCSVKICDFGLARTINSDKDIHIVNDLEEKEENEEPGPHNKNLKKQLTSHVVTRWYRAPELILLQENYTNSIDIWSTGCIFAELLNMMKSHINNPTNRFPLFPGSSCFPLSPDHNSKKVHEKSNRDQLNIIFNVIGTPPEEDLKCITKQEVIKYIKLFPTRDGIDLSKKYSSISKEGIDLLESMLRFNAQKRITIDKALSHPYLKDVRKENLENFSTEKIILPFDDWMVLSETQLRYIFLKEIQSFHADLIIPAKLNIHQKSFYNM

[4] = biological target: Calcium-dependent protein kinase 1 (Plasmodium falciparum, UniProt P62344); test: MMV: CDPK1 Protein kinase inhibition assay using recombinant PfCDPK1, syntide 2 peptide substrate, ATP and KinaseGlo to measure % inhibition at 1 uM MMV box compound.
Calcium-dependent protein kinase 1, sequence (P62344 whole entry): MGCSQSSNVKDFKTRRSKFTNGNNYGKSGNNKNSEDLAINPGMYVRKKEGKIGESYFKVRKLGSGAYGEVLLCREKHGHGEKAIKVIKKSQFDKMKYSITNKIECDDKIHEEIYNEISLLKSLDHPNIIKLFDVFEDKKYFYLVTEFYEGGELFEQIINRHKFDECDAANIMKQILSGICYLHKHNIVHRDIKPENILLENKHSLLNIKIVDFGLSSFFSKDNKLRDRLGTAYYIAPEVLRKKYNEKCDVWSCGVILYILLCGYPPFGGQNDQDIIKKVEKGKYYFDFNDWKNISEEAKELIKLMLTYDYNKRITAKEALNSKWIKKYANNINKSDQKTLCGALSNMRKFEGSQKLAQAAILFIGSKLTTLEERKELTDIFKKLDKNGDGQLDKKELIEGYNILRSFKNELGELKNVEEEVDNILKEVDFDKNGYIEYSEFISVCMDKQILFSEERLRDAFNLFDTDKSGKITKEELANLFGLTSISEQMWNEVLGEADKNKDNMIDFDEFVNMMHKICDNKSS

[5] = biological target: T4, Calcium-dependent protein kinase 4 (Plasmodium falciparum (isolate 3D7), UniProt Q8IBS5); test: MMV: CDPK4 Protein kinase inhibition assay using recombinant PfCDPK4, syntide2 peptide substrate, ATP and KinaseGlo to measure % inhibition at 1 uM MMV box compound.
T4 sequence (Q8IBS5 whole entry): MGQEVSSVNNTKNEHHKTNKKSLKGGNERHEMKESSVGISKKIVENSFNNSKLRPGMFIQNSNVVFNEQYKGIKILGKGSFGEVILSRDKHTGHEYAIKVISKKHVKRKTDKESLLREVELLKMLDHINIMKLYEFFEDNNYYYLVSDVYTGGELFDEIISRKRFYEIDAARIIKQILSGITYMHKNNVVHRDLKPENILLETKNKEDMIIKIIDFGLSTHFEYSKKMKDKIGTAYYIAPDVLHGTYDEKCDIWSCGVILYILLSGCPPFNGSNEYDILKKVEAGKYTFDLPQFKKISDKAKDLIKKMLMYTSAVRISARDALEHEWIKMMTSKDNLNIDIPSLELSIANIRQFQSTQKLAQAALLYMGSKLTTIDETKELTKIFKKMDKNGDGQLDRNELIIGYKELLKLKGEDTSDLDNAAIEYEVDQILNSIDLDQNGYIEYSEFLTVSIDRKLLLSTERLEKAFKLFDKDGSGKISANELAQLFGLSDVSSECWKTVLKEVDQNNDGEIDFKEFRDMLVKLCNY

[6] = biological target: T5, Proline--tRNA ligase (Plasmodium falciparum (isolate 3D7), UniProt Q8I5R7); test: MMV: ProRS recombinant Plasmodium falciparum Prolyl-tRNA-synthetase, assay with yeast tRNA, ATP, and proline and 3 uM MMV malaria box compound, assay read out with kinase glo as % inhibition.
T5 sequence (Q8I5R7 whole entry): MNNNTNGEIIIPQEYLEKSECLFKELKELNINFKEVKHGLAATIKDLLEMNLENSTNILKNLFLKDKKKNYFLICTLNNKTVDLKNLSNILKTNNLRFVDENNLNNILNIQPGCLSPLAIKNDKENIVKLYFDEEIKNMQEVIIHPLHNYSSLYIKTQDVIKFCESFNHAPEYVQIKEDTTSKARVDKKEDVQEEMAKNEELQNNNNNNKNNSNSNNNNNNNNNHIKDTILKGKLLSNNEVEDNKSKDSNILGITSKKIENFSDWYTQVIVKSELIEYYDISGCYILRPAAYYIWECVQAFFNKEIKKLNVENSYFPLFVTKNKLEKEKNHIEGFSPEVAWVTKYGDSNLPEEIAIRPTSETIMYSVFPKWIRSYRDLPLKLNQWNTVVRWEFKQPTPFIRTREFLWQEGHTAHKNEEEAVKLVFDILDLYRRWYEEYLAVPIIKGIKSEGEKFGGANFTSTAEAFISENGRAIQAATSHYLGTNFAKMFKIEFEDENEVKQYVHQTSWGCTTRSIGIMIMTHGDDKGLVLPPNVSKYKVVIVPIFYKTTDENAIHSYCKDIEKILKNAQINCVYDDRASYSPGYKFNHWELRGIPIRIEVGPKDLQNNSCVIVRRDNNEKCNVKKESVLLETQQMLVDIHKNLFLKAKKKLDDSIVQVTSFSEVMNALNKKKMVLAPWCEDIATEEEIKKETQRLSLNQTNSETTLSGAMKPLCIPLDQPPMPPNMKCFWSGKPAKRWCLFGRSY

[7] = biological target: Lysine--tRNA ligase (Plasmodium falciparum (isolate 3D7), UniProt Q8IDJ8); test: MMV: KRS recombinant Plasmodium falciparum Lysyl-tRNA-synthetase, assay with yeast tRNA, ATP, and lysine and 3 uM MMV malaria box compound, assay read out with kinase glo as % inhibition.
Lysine--tRNA ligase, sequence (Q8IDJ8 whole entry): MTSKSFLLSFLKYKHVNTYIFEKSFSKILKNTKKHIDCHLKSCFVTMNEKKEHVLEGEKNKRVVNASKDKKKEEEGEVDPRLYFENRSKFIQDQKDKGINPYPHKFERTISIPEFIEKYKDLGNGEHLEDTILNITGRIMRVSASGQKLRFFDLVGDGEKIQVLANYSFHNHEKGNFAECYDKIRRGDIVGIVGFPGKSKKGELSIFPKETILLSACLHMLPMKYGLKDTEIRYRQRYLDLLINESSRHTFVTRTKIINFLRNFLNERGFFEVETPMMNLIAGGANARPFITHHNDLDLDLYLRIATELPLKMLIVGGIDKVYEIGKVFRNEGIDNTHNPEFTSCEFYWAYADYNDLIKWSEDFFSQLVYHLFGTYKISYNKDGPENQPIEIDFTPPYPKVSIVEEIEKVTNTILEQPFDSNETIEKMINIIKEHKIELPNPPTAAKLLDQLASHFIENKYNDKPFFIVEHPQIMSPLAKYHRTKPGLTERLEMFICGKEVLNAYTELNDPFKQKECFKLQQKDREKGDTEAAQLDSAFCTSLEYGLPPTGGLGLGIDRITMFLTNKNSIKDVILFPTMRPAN

| Compound | IC50 [1] [µM] | IC50 [2] [µM] | IC50 [3] [µM] | IC50 [4] [µM] | IC50 [5] [µM] | IC50 [6] [µM] | IC50 [7] [µM] |
| --- | --- | --- | --- | --- | --- | --- | --- |
| Oc1ccccc1CN1CCN(C(c2ccccc2)c2ccccc2)CC1 | > 1 | > 1 | > 1 | > 1 | > 1 | > 2.5 | > 2.5 |
| Oc1c(C(Nc2ccccn2)c2cccc(Oc3ccccc3)c2)ccc2cccnc12 (configuration not stated) | > 1 | > 1 | > 1 | > 1 | > 1 | > 2.5 | > 2.5 |
| FC(F)(F)c1cccc(CNC2CCN(CCc3ccccc3)CC2)c1 | > 1 | > 1 | > 1 | > 1 | > 1 | > 2.5 | > 2.5 |
| COc1ccc(CN2CCCC(C(=O)c3ccc(C(F)(F)F)cc3)C2)c(O)c1 (configuration not stated) | > 1 | > 1 | > 1 | > 1 | > 1 | > 2.5 | > 2.5 |
| CCCc1c(CC)c(=N)c2ccccc2n1C | > 1 | > 1 | > 1 | > 1 | > 1 | > 2.5 | > 2.5 |
| CCOc1ccc2nc(C)cc(Nc3ccc(N(C)C)cc3)c2c1 | > 1 | > 1 | > 1 | > 1 | > 1 | > 2.5 | > 2.5 |
| O=C(Nc1ccc(CN2CCOCC2)cc1)c1ccc(-c2ccc(Br)cc2)o1 | > 1 | > 1 | > 1 | > 1 | > 1 | > 2.5 | > 2.5 |
| COc1ccc(C(=O)NC(c2ccc(Cl)cc2Cl)c2cc(Cl)c3cccnc3c2O)cc1 (configuration not stated) | > 1 | > 1 | > 1 | > 1 | > 1 | > 2.5 | > 2.5 |
| O=C(Nc1ccc(-c2nc3ccccc3[nH]2)cc1)c1ccc(Cl)c(Cl)c1 | > 1 | > 1 | > 1 | > 1 | > 1 | > 2.5 | > 2.5 |
| O=c1c2c([nH]c3ccccc13)CCCC2 | > 1 | > 1 | > 1 | > 1 | > 1 | > 2.5 | > 2.5 |
| OC(CNC1CCCCC1)Cn1c2ccc(I)cc2c2cc(I)ccc21 (configuration not stated) | > 1 | > 1 | > 1 | > 1 | > 1 | > 2.5 | > 2.5 |
| C[n+]1c2ccccc2nc2ccc(NCCO)cc21 | > 1 | > 1 | > 1 | > 1 | > 1 | > 2.5 | > 2.5 |
| O=C(Nc1ccc(N2CCN(Cc3ccccc3)CC2)cc1)c1cccs1 | > 1 | > 1 | > 1 | > 1 | > 1 | > 2.5 | > 2.5 |
| CCOC(=O)c1c(C)n(-c2ccc(Cl)cc2)c2ccc(OC(=O)C=Cc3ccccc3)cc12 | > 1 | > 1 | > 1 | > 1 | > 1 | > 2.5 | > 2.5 |
| CCCCCCc1cc2cc(-c3nc4ccccc4[nH]3)c(=Nc3ccccc3C)oc2cc1O | > 1 | > 1 | > 1 | > 1 | > 1 | > 2.5 | > 2.5 |
| Cc1ccc2c(C)nc(Nc3nc(C)cc(-c4ccccc4)n3)nc2c1 | > 1 | > 1 | > 1 | > 1 | > 1 | > 2.5 | > 2.5 |
| CC1CN(C(=O)c2sc3ccccc3c2Cl)CC(C)O1 (configuration not stated) | > 1 | > 1 | > 1 | > 1 | > 1 | > 2.5 | > 2.5 |
| Oc1ccccc1CNCC12CC3CC(CC(C3)C1)C2 | > 1 | > 1 | > 1 | > 1 | > 1 | > 2.5 | > 2.5 |
| CCOC(=O)c1c[nH]c2c(CC)cccc2c1=O | > 1 | > 1 | > 1 | > 1 | > 1 | > 2.5 | > 2.5 |
| CC(C)(C)c1ccc(C(=O)Nc2nc3ccccc3s2)cc1 | > 1 | > 1 | > 1 | > 1 | > 1 | > 2.5 | > 2.5 |
| CC(C)CCNCC(O)Cn1c2ccccc2c2ccccc21 (configuration not stated) | > 1 | > 1 | > 1 | > 1 | > 1 | > 2.5 | > 2.5 |
